Common to all, as to assay: ≥ marks a high value that may be exact or a test limit, other limits are often not marked, values filed in µg/mL are converted to µM
Test [1] relates to Candida albicans CGMCC 2.2086.
In test [2] the test system is Candida parapsilosis CGMCC 2.3989.
Test [3] deals with Candida tropicalis CGMCC 2.1975.
Test [4] has as its system Escherichia coli 078.
For test [5], the system named is Escherichia coli ATCC 25922.
Test [6] relates to Escherichia coli K88.
Test [7] concerns Escherichia coli K99.
The test system of test [8] is Escherichia coli UB1005.
The test system of test [9] is Pseudomonas aeruginosa ATCC 27853.
Test [10] deals with Salmonella enterica subsp. enterica serovar Typhimurium ATCC 14028.
Test [11] relates to Salmonella enterica subsp. enterica serovar Typhimurium C77-31.
The subject of test [12] is Staphylococcus aureus ATCC 25923.
For test [13], the system named is Staphylococcus aureus ATCC 29213.
For test [14], the system named is Staphylococcus aureus ATCC 43300.
The subject of test [15] is Staphylococcus epidermidis ATCC 12228.
Test [16] deals with Aeromonas salmonicida 97-4.
Test [17] concerns Aeromonas salmonicida 99-1.
Test [18] concerns Candida albicans C627.
The subject of test [19] is Escherichia coli CGSC 4908.
In test [20] the test system is Escherichia coli DC2.
The test system of test [21] is Pseudomonas aeruginosa K799.
Test [22] concerns Pseudomonas aeruginosa Z61.
Test [23] relates to Salmonella enterica serovar typhimurium MS7953s.
In test [24] the test system is Salmonella enterica subsp. enterica serovar Typhimurium ATCC 14028s.
Test [25] concerns Staphylococcus aureus C623.
Test [26] deals with Staphylococcus epidermidis C621.
The test system of test [27] is Bifidobacterium adolescentis.
In test [28] the test system is Citrobacter koseri.
Test [29] concerns Enterococcus faecium.
Test [30] deals with Escherichia coli BL21.
Test [31] relates to Escherichia coli JM109.
Test [32] relates to Klebsiella pneumoniae CCRC 10694.
Test [33] has as its system Lactobacillus delbrueckii subsp. bulgaricus.
Test [34] has as its system Pseudomonas aeruginosa.
The subject of test [35] is Salmonella enterica.
Test [36] deals with Salmonella typhimurium CCRC 12947.
Test [37] deals with Staphylococcus aureus CCRC 12652.
Test [38] concerns Staphylococcus aureus CCRC 15211.
Test [39] has as its system Staphylococcus xylosus.
In test [40] the test system is Vibrio parahaemolyticus CCRC 10806.

In DBAASP one finds MIC data, which are given here for 5 molecules.

Values after ≈ are worked out from the molar mass of the structure shown. Some results are limits rather than exact numbers.

With `CC[C@H](C)[C@H](NC(=O)[C@H](CCCCN)NC(=O)[C@H](C)NC(=O)[C@H](C)N)C(=O)N[C@H](C(=O)N[C@@H](CC(C)C)C(=O)N[C@@H](CC(N)=O)C(=O)N1CCC[C@H]1C(=O)N[C@@H](CCCCN)C(=O)N[C@@H](Cc1ccccc1)C(=O)N[C@@H](CCCN=C(N)N)C(N)=O)[C@@H](C)CC` [AAKIILNPKFR], the minimum inhibitory concentration (MIC) – broadly, the lowest concentration that inhibits growth of the organism – was at least 128 µM in test [1]; at least 128 µM in test [2]; at least 128 µM in [3]; at least 128 µM in [4]; above 128 µM in test [5]; at least 128 µM in [6]. For the same molecule, the MIC was at least 128 µM in [7]; at least 128 µM in test [8]; above 128 µM in [9]; above 128 µM in test [10]; at least 128 µM in test [11]; above 128 µM in [12]. Besides, the MIC in test [13], in [14] and in test [15] was above 128 µM each time.
Regarding `CC[C@H](C)[C@H](NC(=O)[C@H](CCCCN)NC(=O)CNC(=O)[C@@H](NC(=O)[C@H](Cc1cnc[nH]1)NC(=O)[C@H](Cc1cnc[nH]1)NC(=O)[C@@H](NC(=O)CNC(=O)[C@H](Cc1cnc[nH]1)NC(=O)[C@H](Cc1ccccc1)NC(=O)[C@H](CC(C)C)NC(=O)[C@H](CC(C)C)NC(=O)[C@H](CCCNC(=N)N)NC(=O)[C@H](Cc1ccccc1)NC(=O)[C@@H](N)Cc1ccccc1)C(C)C)C(C)C)C(=O)N[C@@H](CCCCN)C(=O)N1CCC[C@H]1C(=O)N[C@@H](CCCNC(=N)N)C(=O)N[C@@H](C)C(C)=O` [FFRLLFHGVHHVGKIKPRA], the MIC was determined as 14.2 µM (≈ 32 µg/mL) in test [16]; 28.3 µM (≈ 63.9 µg/mL) in test [17]; 28.3 µM (≈ 63.9 µg/mL) in [18]; 14.2 µM (≈ 32 µg/mL) in test [19]; 14.2 µM (≈ 32 µg/mL) in [20]; 14.2 µM (≈ 32 µg/mL) in test [8]. In addition, the MIC in test [21] amounted to 14.2 µM (≈ 32 µg/mL); in test [22], 3.54 µM (≈ 7.99 µg/mL); in [23], 7.08 µM (≈ 16 µg/mL); in [24], 28.3 µM (≈ 63.9 µg/mL); in test [25], 28.3 µM (≈ 63.9 µg/mL); in test [26], 14.2 µM (≈ 32 µg/mL).
In the case of `CC(=O)[C@H](CC(C)C)NC(=O)[C@H](Cc1ccc(O)cc1)NC(=O)[C@H](Cc1cnc[nH]1)NC(=O)[C@H](CC(=O)O)NC(=O)[C@H](CC(C)C)NC(=O)[C@H](C)NC(=O)[C@H](CC(C)C)NC(=O)CNC(=O)CNC(=O)[C@@H](NC(=O)[C@@H](NC(=O)[C@H](CCCCN)NC(=O)CNC(=O)[C@@H](NC(=O)[C@H](CCCCN)NC(=O)[C@H](CCCCN)NC(=O)[C@H](C)NC(=O)[C@H](CCCCN)NC(=O)[C@H](CCCNC(=N)N)NC(=O)[C@H](Cc1ccccc1)NC(=O)[C@@H](NC(=O)[C@H](CO)NC(=O)[C@H](CCCCN)NC(=O)[C@H](Cc1c[nH]c2ccccc12)NC(=O)CN)C(C)C)C(C)C)[C@@H](C)O)C(C)C` [GWKSVFRKAKKVGKTVGGLALDHYL], the MIC in test [16] worked out at 2.9 µM (≈ 7.99 µg/mL); in test [17], 2.9 µM (≈ 7.99 µg/mL); in test [18], 11.6 µM (≈ 32 µg/mL); in test [19] it was 1.45 µM (≈ 4 µg/mL); in [20], 1.45 µM (≈ 4 µg/mL); in [8], 5.8 µM (≈ 16 µg/mL). The MIC in test [21] amounted to 11.6 µM (≈ 32 µg/mL); in test [22] it was 1.45 µM (≈ 4 µg/mL); in [23], 1.45 µM (≈ 4 µg/mL); in [24], 11.6 µM (≈ 32 µg/mL); in test [25] it was 23.2 µM (≈ 64 µg/mL); in test [26] it was 23.2 µM (≈ 64 µg/mL).
Turning to `CC[C@H](C)[C@H](NC(=O)[C@H](CC(N)=O)NC(=O)[C@H](CCCCN)NC(=O)[C@H](CC(C)C)NC(=O)[C@H](CCCCN)NC(=O)[C@@H](N)CC(C)C)C(=O)N[C@H](C(=O)N[C@@H](CO)C(=O)N[C@@H](Cc1c[nH]c2ccccc12)C(=O)N[C@@H](C)C(=O)N[C@@H](CCCCN)C(=O)N[C@@H](CCCCN)C(=O)N[C@H](C(=O)N[C@@H](CC(C)C)C(N)=O)C(C)C)C(C)C` [LKLKNIVSWAKKVL], the MIC is at least 78 µM in test [27]; 2.44 µM (≈ 4 µg/mL) in [28]; at least 78 µM in test [29]; 4.88 µM (≈ 8 µg/mL) in [30]; 1.22 µM (≈ 2 µg/mL) in [31]; at least 39 µM in test [32]. Also, the MIC in [33] was at least 78 µM; in [34], 39 µM (≈ 64 µg/mL); in test [35], 19.5 µM (≈ 32 µg/mL); in test [36], 19.5 µM (≈ 32 µg/mL); in [37], 13.8 µM (≈ 22.6 µg/mL); in test [38] it was 19.5 µM (≈ 32 µg/mL). Moreover, the MIC stood at 0.61 µM (≈ 0.999 µg/mL) in [39] and 9.76 µM (≈ 16 µg/mL) in test [40].
Turning to `CC[C@H](C)[C@H](NC(=O)[C@H](CO)NC(=O)[C@H](CCCCN)NC(=O)[C@H](CC(C)C)NC(=O)[C@H](CCCCN)NC(=O)[C@@H](N)CC(C)C)C(=O)N[C@H](C(=O)N[C@@H](CO)C(=O)N[C@@H](Cc1ccc(O)cc1)C(=O)N[C@@H](C)C(=O)N[C@@H](CCCCN)C(=O)N[C@@H](CCCCN)C(=O)N[C@H](C(=O)N[C@@H](CC(C)C)C(N)=O)C(C)C)C(C)C` [LKLKSIVSYAKKVL], the MIC in test [27] was at least 80.5 µM; in [28], 5.03 µM (≈ 8 µg/mL); in [29], at least 80.5 µM; in test [30], 10.1 µM (≈ 16 µg/mL); in [31], 1.26 µM (≈ 2 µg/mL); in test [32] it was at least 80.5 µM. Also, the MIC in test [33] was at least 80.5 µM; in test [34], 80.5 µM (≈ 128 µg/mL); in [35], at least 80.5 µM; in [36] it was at least 80.5 µM; in [37] it was at least 80.5 µM; in test [38], at least 80.5 µM. Further, the minimal inhibitory concentration (MIC) is 0.629 µM (≈ 0.999 µg/mL) in test [39] and at least 40.3 µM in test [40].
